Experimental data as given in the supplement of paper PMC3493320.
pIC50: −log10 of the molar value.

Tested on: NCI-H295R
Test: IC50 (antiproliferative, ATP content)
Settings: 48 h
Summary of the method: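 Adrenocortical carcinoma cells were plated at 1500 per well in 1536-well plates in serum-free DMEM with ITS supplement, left overnight, then given library compounds by pin transfer at 8 final concentrations spanning 0.6 nM to 46 µM and held 48 h at 37 °C, 5% CO2. ATP was measured as CellTiter-Glo luminescence after 20 min at room temperature and scaled between vehicle and positive-control wells. A four-parameter logistic model was fitted to each series. The IC50 was taken from these fits, and compounds without a concentration response were recorded as above the top dose.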

pIC50	SMILES
< 4.34	CS(=O)(=O)Nc1ccc([N+](=O)[O-])cc1Oc1ccccc1
< 4.34	CCN(Cc1ccncc1)C(=O)C(CO)c1ccccc1 (stereo unspecified)
< 4.34	OCC1(CO)COC(C(Cl)(Cl)Cl)OC1
< 4.34	CC(=O)[C@@]1(O)CC[C@H]2[C@@H]3CCC4=CC(=O)CC[C@]4(C)[C@H]3CC[C@@]21C
< 4.34	CCOC(=O)C=C(C)C=CC=C(C)C=Cc1c(C)cc(OC)c(C)c1C
< 4.34	C/C(=C\C(=O)OCCCCCCCCC(=O)O)C[C@@H]1OC[C@H](C[C@@H]2O[C@H]2[C@@H](C)[C@H](C)O)[C@@H](O)[C@H]1O
< 4.34	CC(=O)Nc1ccc(CC(=O)O)cc1
< 4.34	COCCCC/C(=N\OCCN)c1ccc(C(F)(F)F)cc1
< 4.34	O=C3N1/C(=C(/C)CS[C@@H]1[C@@H]3NC(=O)[C@H](N)c2ccccc2)C(O)=O
< 4.34	Cc1ncc(C[n+]2csc(CCO)c2C)c(N)n1.Cl.[Cl-]
< 4.34	O=C1N(c2ccccc2)c2ccccc2C1(Cc1ccncc1)Cc1ccncc1
< 4.34	CC1(C)[C@@H](OC(=O)CCC(=O)[O-])CC[C@]2(C)[C@H]3C(=O)C=C4[C@@H]5C[C@@](C)(C(=O)[O-])CC[C@]5(C)CC[C@@]4(C)[C@]3(C)CC[C@@H]12.[Na+].[Na+]
< 4.34	O=C(c1ccccc1)C(O)c1ccccc1 (stereo unspecified)
< 4.34	COCCCOc1ccnc(CS(=O)c2nc3ccccc3[n-]2)c1C.[Na+] (stereo unspecified)
< 4.34	CC/C=C\C/C=C\C/C=C\CCCCCCCC(=O)O
< 4.34	O=C(CCNNC(=O)c1ccncc1)NCc1ccccc1
< 4.34	O[C@]([C@@H](CC3)CC[C@@]3(C#N)C(C=C1OC2CCCC2)=CC=C1OC)=O
< 4.34	O=c1[nH]c2cc(C(F)(F)F)c(N3CCOCC3)cc2n(CP(=O)(O)O)c1=O
< 4.34	CCN(CC)Cc1cc(Nc2ccnc3cc(Cl)ccc23)ccc1O.Cl.Cl.O.O
< 4.34	Cc1ccc(O)c([C@H](CCN(C(C)C)C(C)C)c2ccccc2)c1
< 4.34	Clc1ccccc1CN1CCc2sccc2C1
< 4.34	O=C1NC(=O)C(c2ccccc2)(c2ccccc2)N1
< 4.34	NC(=O)NS(=O)(=O)c1ccc(N)cc1
< 4.34	O=C(O)COc1ccccc1/C=N/NC(=O)c1ccncc1

pIC50	SMILES
< 4.34	CC(C)(C)NC(=O)[C@H]4CC[C@@H]3[C@]4(C)CC[C@H]1[C@H]3CC[C@H]2NC(=O)\C=C/[C@]12C
< 4.34	NS(=O)(=O)c1cc2c(cc1Cl)NC(CC1CCCC1)NS2(=O)=O (stereo unspecified)
< 4.34	CC(=O)OCC(CCn1cnc2cnc(N)nc21)COC(C)=O
< 4.34	Cc1cc(OI)c(C(C)C)cc1-c1cc(C(C)C)c(OI)cc1C
< 4.34	CC(C)CCCC(C)N (stereo unspecified)
< 4.34	C(N3C2)(SCC3)=N[C@H]2[C@@]1=CC=CC=C1.Cl
< 4.34	CCN(CC)CC#CCOC(=O)C(O)(c1ccccc1)C1CCCCC1.Cl (stereo unspecified)
< 4.34	O=C2N1[C@]([C@@]([H])2NC(CC3=CC=CC=C3)=O)([H])SC(C)(C)[C@@H]1[C@@](O)=O.O=C5N4[C@]([C@@]([H])5NC(CC6=CC=CC=C6)=O)([H])SC(C)(C)[C@@H]4[C@@](O)=O.C7(CNCCNCC8=CC=CC=C8)=CC=CC=C7
< 4.34	C/C(=C(/CCOP(=O)(O)O)SC(=O)c1ccccc1)N(C=O)Cc1cnc(C)nc1N
< 4.34	CC(N)C(=O)OC(C)(C)Cc1ccc(Cl)cc1 (stereo unspecified)
< 4.34	O=C(N[C@H]([C@H]1O[C@@H]([C@@H]4O)OC(C(O)=O)[C@H]([C@@H]4O)O[C@@H]([C@@H]3NC(C)=O)O[C@@H]([C@H](C3O[C@H]([C@@H]2O)O[C@H]([C@](O)=O)C([C@@H]2O)O)O)CO)C(O[C@@H]([C@H]1O)CO)O)C (stereo partly specified)
< 4.34	COc1ccccc1N1CCN(CCCC(=O)c2ccc(F)cc2)CC1
< 4.34	O=C1N(C(C(O)=O)=C(CSC4=NN=NN4C)CS2)[C@@]2([H])[C@@]([H])1NC([C@@H]([C@@](C=C5)=CC=C5O)NC(C3=C(O)C=C(C)N=C3)=O)=O
< 4.34	O=[C@@]([O-])[C@@H](CC3=CC=CC=C3)CC(N1C[C@@]2([H])[C@@](CCCC2)([H])C1)=O.O=[C@@]([O-])[C@@H](CC6=CC=CC=C6)CC(N4C[C@@]5([H])[C@@](CCCC5)([H])C4)=O.O.O.[Ca+2]
< 4.34	CC1CS(=O)(=O)CCN1/N=C/c1ccc([N+](=O)[O-])o1 (stereo unspecified)
< 4.34	COc1cc(C(=O)NCc2ccc(OCCN(C)C)cc2)cc(OC)c1OC.Cl
< 4.34	OCc1ccc(Cl)cc1Cl
< 4.34	CN1CCCCC1CCN1c2ccccc2Sc2ccc(S(C)=O)cc21 (stereo unspecified)
< 4.34	CC1=C(C/C=C(\C)CCC[C@H](C)CCC[C@H](C)CCCC(C)C)C(=O)c2ccccc2C1=O
< 4.34	O=C(NCC1CCCCN1)c1cc(OCC(F)(F)F)ccc1OCC(F)(F)F (stereo unspecified)
< 4.34	NC(=O)c1cc[n+](CC2=C(C(=O)[O-])N3C(=O)[C@@H](NC(=O)[C@H](c4ccccc4)S(=O)(=O)[O-])[C@@H]3SC2)cc1.[Na+]
< 4.34	CC1=C(O[C@H](CCNC)[C@@]2=CC=CC=C2)C=CC=C1.Cl
< 4.34	OC[C@H]1O[C@@H](Oc2ccc(O)cc2)[C@H](O)[C@@H](O)[C@@H]1O
< 4.34	Cc1ncc(CO)c(CN)c1O.Cl.Cl

pIC50	SMILES
< 4.34	Cc1ccccc1OCC(O)CO (stereo unspecified)
< 4.34	CNC(=O)OCc1cccc(COC(=O)NC)n1
< 4.34	Cc1c(C)c2c(c(C)c1OC(=O)c1cccnc1)CC[C@@](C)(CCC[C@H](C)CCC[C@H](C)CCCC(C)C)O2
< 4.34	N=C(N)c1ccc(OCCCCCOc2ccc(C(=N)N)cc2)cc1.O=S(=O)(O)CCO.O=S(=O)(O)CCO
< 4.34	COc1ccc(C(=O)N2CCN(CC(=O)N3CCOCC3)CC2)cc1
< 4.34	CCCC(CCC)C(=O)O
< 4.34	CCn1cc(C(=O)O)c(=O)c2ccc(C)nc21
< 4.34	O=C1OC(c2ccc(O)cc2)(c2ccc(O)cc2)c2ccccc21
< 4.34	O=[C@](OC)[C@H]3[C@@]2([H])C[C@](N4C[C@]([H])2C[C@H](OC)[C@@H]3OC)([H])C1=C(CC4)C(C=C5)=C(C=C5OC)N1.Cl
< 4.34	Cc1nc2n(c(=O)c1CCN1CCC(c3noc4cc(F)ccc34)CC1)CCCC2
< 4.34	Nc1ccncc1N
< 4.34	C=Cc1ccc(S(=O)(=O)[O-])cc1.[Na+]
< 4.34	COc1ccc2c(c1OC)C(=O)O[C@@H]2[C@H]1c2c(cc3c(c2OC)OCO3)CCN1C
< 4.34	CC(C)(C)c1ccc(C(O)CCCN2CCC(C(O)(c3ccccc3)c3ccccc3)CC2)cc1 (stereo unspecified)
< 4.34	O=P(CC(N2C[C@H]([C@H]3CCCCC3)C[C@H]2[C@@](O)=O)=O)(OC(OC(CC)=O)C(C)C)CCCCC1=CC=CC=C1 (stereo partly specified)
< 4.34	COc1ccc([C@@H]2Sc3ccccc3N(CCN(C)C)C(=O)[C@@H]2OC(C)=O)cc1
< 4.34	CN[C@@H]1[C@@H](O[C@H]2O[C@H](CO)[C@@H](N)[C@H](O)[C@H]2O)O[C@H]2C[C@@H](N)[C@@H](O[C@H]3[C@H](O)[C@@H](O)[C@H](N)C[C@@H]3N)O[C@@H]2[C@@H]1O
< 4.34	Cc1ccc(S(=O)(=O)NC(=O)NC2CCCCCCC2)cc1
< 4.34	COc1cc2c(cc1OC)[C@@H](Cc1cc(OC)c(OC)c(OC)c1)[N+](C)(CCCOC(=O)CC/C=C/CCC(=O)OCCC[N+]1(C)CCc3cc(OC)c(OC)cc3[C@H]1Cc1cc(OC)c(OC)c(OC)c1)CC2.[Cl-].[Cl-] (stereo partly specified)
< 4.34	CC(=O)OCC1=C(C(=O)[O-])N2C(=O)[C@@H](NC(=O)CSc3ccncc3)[C@H]2SC1.[Na+]
< 4.34	COC(=O)C(CN)c1c[nH]c2ccc(OC)cc12.Cl (stereo unspecified)
< 4.34	CCCOC(=O)c1ccccc1
< 4.34	Oc1ccc(Cl)c2c1CCC2

SMILES	pIC50
COCCc1ccc(OCC(O)CNC(C)C)cc1.COCCc1ccc(OCC(O)CNC(C)C)cc1.O=C(O)[C@H](O)[C@@H](O)C(=O)O (stereo unspecified)	< 4.34
CN(C)CCOC(c1ccc(Cl)cc1)c1ccccn1.O=C(O)/C=C\C(=O)O (stereo unspecified)	< 4.34
O=c1[n-]c(=O)n(Cl)c(=O)n1Cl.[Na+]	< 4.34
CCN(CC)CCOCCOC(=O)C(CC)(CC)c1ccccc1.O=C(O)CC(O)(CC(=O)O)C(=O)O	< 4.34
CCN(Cc1ccc(Cl)nc1)/C(=C/[N+](=O)[O-])NC	< 4.34
CC(C)(O)C(Cl)(Cl)Cl	< 4.34
CC(Cc1ccccc1)NCc1ccccc1Cl.Cl (stereo unspecified)	< 4.34
c1ccc(C2(N3CCCC3)CCCCC2)cc1	< 4.34
COCC(=O)N(c1c(C)cccc1C)C(C)C(=O)OC (stereo unspecified)	< 4.34
Cc1ccc(S(=O)(=O)O)cc1.c1cc2c(c(NC3=NCCN3)c1)CCCC2	< 4.34
O=c1[nH]cc(N(CCCl)CCCl)c(=O)[nH]1	< 4.34
O=P([O-])(O)C(Cl)(Cl)P(=O)([O-])O.[Na+].[Na+]	< 4.34
Br.CC(N)Cc1ccc(O)cc1 (stereo unspecified)	< 4.34
CN1C(=O)CC(=O)N(c2ccccc2)c2cc(Cl)ccc21	< 4.34
CC[N+]1(C)CCCC(OC(=O)C(O)(c2ccccc2)c2ccccc2)C1.[Br-] (stereo unspecified)	< 4.34
Oc1ccc2c3c1O[C@H]1[C@@H](O)CC[C@@]4(O)[C@@H](C2)N(CC2CCC2)CC[C@]314	< 4.34
O=C(O)c1ccc2[nH]cc(CCCCN3CC=C(c4ccccc4)CC3)c2c1	< 4.34
CCN(C)C(=O)Oc1cccc([C@H](C)N(C)C)c1.O=C(O)[C@@H](O)[C@H](O)C(=O)O	< 4.34
O=[C@](O)[C@@H]1[C@@H](CC(O)=O)[C@@H]([C@](C)=C)CN1	< 4.34
COc1ccc(C(=O)N2CCCC2=O)cc1	< 4.34
